Experiment: Dynamic Vapor Sorption (DVS) analysis (gas water sorption)
Format: physicochemical
Conditions: for water uptake (DVS): 25° C./60% RH; for hygroscopicity (DVS): hygroscopic above 2% mass gain at 25° C./60% RH
Description: The dynamic vapor sorption (DVS) analysis (gas water sorption) was performed on a DVS-Intrinsic incubator (SMS Ltd), equipped with DVS-Intrinsic Control Software 1.0. The sample, placed in an aluminium basket holder, was submitted to a full-cycle analysis (sorption followed by desorption cycle) under the following conditions:
The sample was first pre-dried under a stream of dry air until a stabilized sample mass was observed. Then, the relative humidity was increased by 5% increments. At each step, the sample mass was allowed to increase until equilibrium is reached (according to a given dm/dt target), and then a new relative humidity rise occurred. Relative humidity was ramped up to 95%. After equilibration at this point, desorption began in a similar stepwise manner, with sample mass decrease again allowed to stabilize after each incremental humidity decrease.
With both segments of the above-described method, the sample mass recording allowed describing of the whole vapor water sorption/desorption behaviour versus relative humidity.

[1] = listed as EYP001 L-lysine salt (Sample A)
[2] = listed as EYP001 L-lysine salt (form I)

In the case of `NCCCC[C@H](N)C(=O)O.O=C(O)c1cc2c(Cl)c(N3CCN(S(=O)(=O)c4c(Cl)cccc4Cl)CC3)ccc2o1` [EYP001 L-lysine salt Form I, L-lysine salt of 4-chloro-5-[4-(2,6-dichlorophenyl)sulfonylpiperazin-1-yl]-1-benzofuran-2-carboxylic acid], the “mass loss during preliminary drying phase” value (25° C./0% RH before sorption, listed as EYP001 L-lysine salt (Sample A)) is reported as “no significant mass loss”, the “water uptake (DVS)” value [1] is reported as 0.4% and the “water uptake (DVS)” value [2] is reported as 0.4%. The “water uptake upon sorption (DVS)” value (25° C./95% RH, listed as EYP001 L-lysine salt (Sample A)) was 0.8%, the “final sample mass after full sorption-desorption cycle versus initial mass” value (back to 0% RH) was “roughly the same as the initial one” and the “hygroscopicity (DVS)” value [1] was “non-hygroscopic”. The “hygroscopicity (DVS)” value [2] was “non-hygroscopic”.

— patent publication US20250019370A1, “L-LYSINE SALT OF 4-CHLORO-5-[4-(2,6-DICHLOROPHENYL)SULFONYLPIPERAZIN-1-YL]-1-BENZOFURAN-2-CARBOXYLIC ACID AND VARIOUS FORMS THEREOF” (ENYO PHARMA, priority 2023, published 2025)
